According to US20240327928A1, “METHOD FOR IDENTIFYING RESPONSIVENESS TO FIBROBLAST GROWTH FACTOR RECEPTOR 1 INHIBITOR THERAPY” (UNIVERSITÄT ZU KÖLN, priority 2021, published 2024):

Tests used:
[1] = system: FGFR1-amplified squamous cell lung cancer; assay: Patients with FGFR1-amplified squamous cell lung cancer treated with an FGFR inhibitor (phase I clinical trial / off-label use); format: in vivo, human; settings: 8 patients treated with BG.J398, phase I clinical trial
Procedure: (§1) Bars are indicated by number (1) (GI50>1 μM) or number (2) (GI50>1 μM) b) Average copy number of 6 cell lines not sensitive upon FGFR inhibition (marked by number (1)) and 2 cell lines which are sensitive upon FGFR inhibition (marked by number (2)). Copy number was extracted from genomic sequencing or whole exome sequencing data and plotted to chromosome 8 (hg19) with ROBOCOP. Location of NSD3 and FGFR1 with grey-backed surface c) Average tumor growth reduction of 8 patient derived xenograft tumor models treated with BG.J398 vs. vehicle. All models were confirmed to be FGFR1 amplified by FGFR1 FISH. Each bar represents an experiment of at least six mice and 12 tumors. Bars are marked by number (1) (tumor reduction of <30%) or by number (2) (tumor reduction of >30%). d) Average copy number of 5 patient derived xenograft tumor models not benefitting from FGFR inhibition (marked by number (1)) and 3 patient derived xenograft tumor (PDX) models which benefit from FGFR inhibition (marked by number (2)). Copy number was extracted from genomic sequencing data and plotted to chromosome 8 (hg19) with ROBOCOP. e) Tumor volume change of patients with squamous cell lung cancer harboring FGFR1 amplification and treated with BG.J398. […]
Finally, the inventors analyzed biopsy specimens obtained from 10 patients with FGFR1-amplified squamous cell lung cancer. […]

[2] = system: FGFR1 amplified patient derived xenograft (PDX) models of squamous cell lung cancer; assay: Patient derived xenograft tumor models treated with BG.J398 vs. vehicle; format: in vivo, mice; settings: 20 mg/kg daily oral
Procedure: Bars are indicated by number (1) (GI50>1 μM) or number (2) (GI50>1 μM) b) Average copy number of 6 cell lines not sensitive upon FGFR inhibition (marked by number (1)) and 2 cell lines which are sensitive upon FGFR inhibition (marked by number (2)). Copy number was extracted from genomic sequencing or whole exome sequencing data and plotted to chromosome 8 (hg19) with ROBOCOP. Location of NSD3 and FGFR1 with grey-backed surface c) Average tumor growth reduction of 8 patient derived xenograft tumor models treated with BG.J398 vs. vehicle. All models were confirmed to be FGFR1 amplified by FGFR1 FISH. Each bar represents an experiment of at least six mice and 12 tumors. Bars are marked by number (1) (tumor reduction of <30%) or by number (2) (tumor reduction of >30%). d) Average copy number of 5 patient derived xenograft tumor models not benefitting from FGFR inhibition (marked by number (1)) and 3 patient derived xenograft tumor (PDX) models which benefit from FGFR inhibition (marked by number (2)). Copy number was extracted from genomic sequencing data and plotted to chromosome 8 (hg19) with ROBOCOP. e) Tumor volume change of patients with squamous cell lung cancer harboring FGFR1 amplification and treated with BG.J398. Tumor volume change was measured by RECIST criteria. […] TUM003 and TUM007 died during treatment and no sign of response. * labeled sample was an of label FGFR inhibitor treated patient where no RECIST data were available. f) Average copy number of 5 patients with progressive disease (marked by number (2)) and 4 patients with durable, partial response upon FGFR inhibition (marked by number (1), one patient was treated with an off label used FGFR inhibitor (GW786034 HCl). […]
Furthermore, the inventors analysed patient-derived 8p12-8p11-amplified squamous cell lung cancer xenotransplant models. In total, the inventors performed FGFR1 fluorescence in situ hybridization (FISH) on 35 patient derived xenograft (PDX) models from EpoBerlin, 39 PDX models from Crown Bioscience Inc., 3 samples of Moro Massimo as previously described. […]

DMS114 = assay: GI50 screening of FGFR1-amplified lung cancer cell lines against FGFR inhibitors; format: cell-based; settings: Homo sapiens, DMS-114; sensitive cell line DMS114; read-out: half-growth-inhibitory concentration, or GI50
Procedure: as §1, with “(2)).” for “(2)). Copy number was extracted from genomic sequencing data and plotted to chromosome 8 (hg19) with ROBOCOP. e) Tumor volume change of patients with squamous cell lung cancer harboring FGFR1 amplification and treated with BG.J398.”
(§2) To gain a deeper understanding of 8p11-8p12-amplified lung cancer tumors and to link specific patterns of the 8p12-8p11 amplicon structure with FGFR1 dependency, the inventors analyzed an independent cohort of 26 8p-amplified tumor specimens with known sensitivity to FGFR inhibition. […]

H1581 = assay: as above; format: cell-based; settings: Homo sapiens, NCI-H1581; sensitive cell line H1581; read-out: half-growth-inhibitory concentration, or GI50
Procedure: as §1, with “(2)).” for “(2)). Copy number was extracted from genomic sequencing data and plotted to chromosome 8 (hg19) with ROBOCOP. e) Tumor volume change of patients with squamous cell lung cancer harboring FGFR1 amplification and treated with BG.J398.”
as §2

[3] = system: Ba/F3 cells expressing ΔEC-FGFR1; assay: Screening of Ba/F3 cells expressing ΔEC-FGFR1 with FGFR inhibitors (cellular ATP content after 96 hours); format: cell-based, murine; settings: IL3 depleted conditions
From the text: Located genes in this region (middle, bottom; positive strand, negative strand), break coverage (top), location of tail-to-tail breaks (arrows and black dashed lines) are shown. Normal exon structure of NSD3 and FGFR1 with the genomic breaks are indicated by an asterisk independent of the chromosomal position shown above (bottom). b) Resulting rearrangement of the t-to-t break (dashed lines, top) and spanning reads from whole transcriptome sequencing data (bottom) is shown. c) PCR from corresponding cDNA with two different primer pairs, spanning the t-to-t break and FGFR1 (left) and matched normal cDNA (right) d) Hybrid-capture-based genomic sequencing (468×depth) copy number plot zoomed to the location of FGFR1 (middle). Tumor sample is from a patient with unknown response upon FGFR inhibition. Normal exon structure of FGFR1 (bottom), location of a tail-to-tail break (arrows), and break coverage (top) is shown. e) The resulting rearrangement of the t-to-t break is shown (dashed lines). f) Break spanning reads detected by ARCHER sequencing technique are indicated. g) Immunoblotting of transformed Baf3 cells (Baf3 FGFR1 AEC and Baf3 EML4-ALK as control) vs. non-transformed Baf3 cells transduced with empty Vector (Baf3 e.V.), FGFR1 alpha (Baf3 FGFR1aplpa), and FGFR1 beta (Baf3 FGFR1beta). […]

[4] = system: FGFR1-amplified lung cancer cell lines; assay: GI50 screening of FGFR1-amplified lung cancer cell lines against FGFR inhibitors (6 resistant lines); format: cell-based; settings: 6 of 8 FGFR1-amplified lung cancer cell lines, read-out: half-growth-inhibitory concentration, or GI50
Procedure: as §1, with “(2)).” for “(2)). Copy number was extracted from genomic sequencing data and plotted to chromosome 8 (hg19) with ROBOCOP. e) Tumor volume change of patients with squamous cell lung cancer harboring FGFR1 amplification and treated with BG.J398.”
as §2

Row | Compound | patients with durable, partial response (tumor volume change by RECIST) [1] [patients] | patients with progressive disease (tumor volume change by RECIST) [1] [patients] | Average tumor growth reduction vs. vehicle ([2]; 3 PDX models which benefit, bars (2)) [%] | Average tumor growth reduction vs. vehicle ([2]; 5 PDX models not benefitting, bars (1)) [%] | PDX models sensitive to FGFR inhibition ([2]; 8 FGFR1 amplified PDX models) | GI50 (DMS114) [nM] | GI50 (H1581) [nM] | sensitivity to FGFR inhibition [3] | GI50 [4] [nM]
1 | CCN1CCN(c2ccc(Nc3cc(N(C)C(=O)Nc4c(Cl)c(OC)cc(OC)c4Cl)ncn3)cc2)CC1 [BG.J398] | 3 | 5 | > 30 | < 30 | Three of the 8 patient derived xenotransplant (PDX) models were sensitive | < 1000 | < 1000 | highly sensitive | > 1000
2 | AZD4547 |  |  |  |  |  |  |  | highly sensitive | 
